Consider 32 compounds from patent publication US20030004172A1, “Fused pyrimidinone matrix metalloproteinase inhibitors” (priority 2001, published 2003).

In general, pIC50 refers to the IC50 on a negative log10 scale, so that one unit is a factor of ten.

Structures are written as SMILES. pIC50: −log10 of the molar value. Some results are limits rather than exact numbers.

The assay has as its target MMP-13CD (catalytic domain of collagenase-3) (Homo sapiens, UniProt P45452). The assay is described as follows: Thiopeptolide substrate hydrolysis inhibition assay, MMP-13CD. The format is biochemical. To be noted: Table I; thiopeptolide substrate, HEPES pH 7.0, 22° C.; read-out: MMP-13CD IC50. From the text:
Thiopeptolide substrates show virtually no decomposition or hydrolysis at or below neutral pH in the absence of a matrix metalloproteinase enzyme.
Consider `Cn1c(=O)n(Cc2ccccc2)c(=O)c2cc(C(=O)OCCc3ccccc3)sc21` [Example 172, 3-Benzyl-1-methyl-2,4-dioxo-1,2,3,4-tetrahydro-thieno[2,3-d]pyrimidine-6-carboxylic acid phenethyl ester], for which the pIC50 was 4.49.

As for `Cn1c(=O)n(Cc2cccc(I)c2)c(=O)c2cc(C(=O)OCc3ccccc3)sc21` [Example 109, 3-(3-Iodo-benzyl)-1-methyl-2,4-dioxo-1,2,3,4-tetrahydro-thieno[2,3-d]pyrimidine-6-carboxylic acid benzyl ester], the pIC50 was 6.03.

As to `Cn1c(=O)n(Cc2ccccc2)c(=O)c2cc(C(=O)OCc3cc4ccccc4o3)sc21` [Example 48, 3-Benzyl-1-methyl-2,4-dioxo-1,2,3,4-tetrahydro-thieno[2,3-d]pyrimidine-6-carboxylic acid benzofuran-2-ylmethyl ester], the pIC50 was 5.84.

For `COc1ccccc1CCNC(=O)c1cc2c(=O)n(Cc3ccccc3)c(=O)n(C)c2s1` [Example 348, 3-Benzyl-1-methyl-2,4-dioxo-1,2,3,4-tetrahydro-thieno[2,3-d]pyrimidine-6-carboxylic acid[2-(2-methoxy-phenyl)-ethyl]-amide], the pIC50 is 4.52.

Take `COc1ccc(CNC(=O)c2cc3c(=O)[nH]c(=O)n(C)c3s2)cc1` [Example 216]: the pIC50 is 4.74.

In the case of `Cn1c(=O)n(CCS(=O)(=O)c2ccc(Cl)cc2)c(=O)c2cc(C(=O)OCc3ccccc3)sc21` [Example 144, 3-[2-(4-Chloro-benzenesulfonyl)-ethyl]-1-methyl-2,4-dioxo-1,2,3,4-tetrahydro-thieno[2,3-d]pyrimidine-6-carboxylic acid benzyl ester], the pIC50 is 8.52.

In the case of `CCN(CC)CC(C)OC(=O)c1cc2c(=O)n(Cc3ccccc3)c(=O)n(C)c2s1` (centres unmarked) [Example 152, 3-Benzyl-1-methyl-2,4-dioxo-1,2,3,4-tetrahydro-thieno[2,3-d]pyrimidine-6-carboxylic acid 2-diethylamino-1-methyl-ethyl ester], the pIC50 is 5.00.

Take `Cn1c(=O)n(CCc2ccccc2)c(=O)c2cc(C(=O)OCc3ccccc3)sc21` [Example 104, 1-Methyl-2,4-dioxo-3-phenethyl-1,2,3,4-tetrahydro-thieno[2,3-d]pyrimidine-6-carboxylic acid benzyl ester]: the pIC50 is 5.96.

Consider `CCC(C)Cn1c(=O)c2cc(C(=O)OCc3ccccc3)sc2n(C)c1=O` (centres unmarked) [Example 120, 1-Methyl-3-(2-methyl-butyl)-2,4-dioxo-1,2,3,4-tetrahydro-thieno[2,3-d]pyrimidine-6-carboxylic acid benzyl ester], for which the pIC50 was 6.89.

In the case of `Cn1c(=O)n(Cc2ccccc2)c(=O)c2cc(C(=O)NCCc3ccc(Cl)cc3)sc21` [Example 322, 3-Benzyl-1-methyl-2,4-dioxo-1,2,3,4-tetrahydro-thieno[2,3-d]pyrimidine-6-carboxylic acid[2-(4-chloro-phenyl)-ethyl]-amide], the pIC50 was less than 4.00.

Take `CC(NC(=O)c1cc2c(=O)n(Cc3ccccc3)c(=O)n(C)c2s1)c1ccccc1` (centres unmarked) [Example 358, 3-Benzyl-1-methyl-2,4-dioxo-1,2,3,4-tetrahydro-thieno[2,3-d]pyrimidine-6-carboxylic acid (1-phenyl-ethyl)-amide]: the pIC50 is less than 4.00.

`Cn1c(=O)n(Cc2ccc(C(=O)O)cc2)c(=O)c2cc(C(=O)NCCc3ccncc3)sc21` [Example 82, 4-[1-Methyl-2,4-dioxo-6-(2-pyridin-4-yl-ethylcarbamoyl)-1,4-dihydro-2H-thieno[2,3-d]pyrimidin-3-ylmethyl]-benzoic acid]: the pIC50 is 5.43.

Take `Cn1c(=O)n(Cc2ccccc2)c(=O)c2cc(C(=O)NCc3ccc(Br)cc3)sc21` [Example 350, 3-Benzyl-1-methyl-2,4-dioxo-1,2,3,4-tetrahydro-thieno[2,3-d]pyrimidine-6-carboxylic acid 4-bromo-benzylamide]: the negative logarithm of the IC50 (pIC50) is 6.03.

In the case of `COc1cccc(CNC(=O)c2cc3c(=O)n(Cc4ccc([N+](=O)[O-])nc4)c(=O)n(C)c3s2)c1` [Example 368, 1-Methyl-3-(6-nitro-pyridin-3-ylmethyl)-2,4-dioxo-1,2,3,4-tetrahydro-thieno[2,3-d]pyrimidine-6-carboxylic acid 3-methoxy-benzylamide], the pIC50 was 6.13.

In the case of `COc1ccc(CNC(=O)c2cc3c(=O)n(Cc4ccccc4)c(=O)n(C)c3s2)cc1` [Example 340, 3-Benzyl-1-methyl-2,4-dioxo-1,2,3,4-tetrahydro-thieno[2,3-d]pyrimidine-6-carboxylic acid 4-methoxy-benzylamide], the pIC50 is 6.92.

Regarding `Cn1c(=O)n(Cc2ccc(F)cc2)c(=O)c2cc(C(=O)OCc3ccccc3)sc21` [Example 118, 3-(4-Fluoro-benzyl)-1-methyl-2,4-dioxo-1,2,3,4-tetrahydro-thieno[2,3-d]pyrimidine-6-carboxylic acid benzyl ester], the pIC50 is 7.82.

For the compound `Cn1c(=O)n(Cc2cccc(C(F)(F)F)c2)c(=O)c2cc(C(=O)OCc3ccccc3)sc21` [Example 110, 1-Methyl-2,4-dioxo-3-(3-trifluoromethyl-benzyl)-1,2,3,4-tetrahydro-thieno[2,3-d]pyrimidine-6-carboxylic acid benzyl ester], the pIC50 was 6.38.

With `Cn1c(=O)n(Cc2ccccc2)c(=O)c2cc(C(=O)OCCCc3cccnc3)sc21` [Example 164, 3-Benzyl-1-methyl-2,4-dioxo-1,2,3,4-tetrahydro-thieno[2,3-d]pyrimidine-6-carboxylic acid 3-pyridin-3-yl-propyl ester], the pIC50 is 4.16.

In the case of `COc1cccc(CNC(=O)c2cc3c(=O)n(CCC(=O)c4ccccc4)c(=O)n(C)c3s2)c1` [Example 243, 1-Methyl-2,4-dioxo-3-(3-oxo-3-phenyl-propyl)-1,2,3,4-tetrahydro-thieno[2,3-d]pyrimidine-6-carboxylic acid 3-methoxy-benzylamide], the pIC50 was 5.85.

For the compound `CC(C)COC(=O)c1cc2c(=O)n(Cc3ccccc3)c(=O)n(C)c2s1` [Example 188, 3-Benzyl-1-methyl-2,4-dioxo-1,2,3,4-tetrahydro-thieno[2,3-d]pyrimidine-6-carboxylic acid isobutyl ester], the negative-log IC50 (pIC50) was 4.72.

For `Cn1c(=O)n(Cc2ccc(C(=O)O)cc2)c(=O)c2cc(C(=O)NCc3ccc(S(N)(=O)=O)cc3)sc21` [Example 59, 4-[1-Methyl-2,4-dioxo-6-(4-sulfamoyl-benzylcarbamoyl)-1,4-dihydro-2H-thieno[2,3-d]pyrimidin-3-ylmethyl]-benzoic acid], the pIC50 is 5.70.

For the compound `CC(CN(C)C)OC(=O)c1cc2c(=O)n(Cc3ccccc3)c(=O)n(C)c2s1` (centres unmarked) [Example 165, 3-Benzyl-1-methyl-2,4-dioxo-1,2,3,4-tetrahydro-thieno[2,3-d]pyrimidine-6-carboxylic acid 2-dimethylamino-1-methyl-ethyl ester], the negative logarithm of the IC50 (pIC50) is 4.70.

`COc1cccc(CNC(=O)c2cc3c(=O)n(Cc4cnc(C)s4)c(=O)n(C)c3s2)c1` [Example 86, 1-Methyl-3-(2-methyl-thiazol-5-ylmethyl)-2,4-dioxo-1,2,3,4-tetrahydro-thieno[2,3-d]pyrimidine-6-carboxylic acid 3-methoxy-benzylamide]: the pIC50 is 5.85.

For `CC(=O)OCCn1c(=O)c2cc(C(=O)OCc3ccccc3)sc2n(C)c1=O` [Example 145, 3-(2-Acetoxy-ethyl)-1-methyl-2,4-dioxo-1,2,3,4-tetrahydro-thieno[2,3-d]pyrimidine-6-carboxylic acid benzyl ester], the pIC50 is 5.89.

For `CC(=O)c1ccc(-n2c(=O)[nH]c3sc(C(=O)OCc4ccccc4)c(C)c3c2=O)cc1` [Example 6, 3-(4-Acetyl-phenyl)-5-methyl-2,4 dioxo-1,2,3,4-tetrahydro-thieno[2,3-d]-pyrimidine-6-carboxylic acid benzyl ester], the pIC50 was less than 4.00.

Take `Cn1c(=O)n(Cc2ccccc2)c(=O)c2cc(C(=O)NCc3ccccc3Cl)sc21` [Example 345, 3-Benzyl-1-1-methyl-2,4-dioxo-1,2,3,4-tetrahydro-thieno[2,3-d]pyrimidine-6-carboxylic acid 2-chloro-benzylamide]: the negative-log IC50 (pIC50) is 4.52.

Regarding `COc1cccc(CNC(=O)c2cc3c(=O)n(CCSc4ccc(Cl)cc4)c(=O)n(C)c3s2)c1` [Example 278], the pIC50 was 5.12.

Take `COc1cccc(CNC(=O)c2cc3c(=O)n(CCN)c(=O)n(C)c3s2)c1` [Example 252, 3-(2-Aminoethyl)-1-methyl-2,4-dioxo-1,2,3,4-tetrahydro-thieno[2,3-d]pyrimidine-6-carboxylic acid 3-methoxy-benzylamide]: the negative logarithm of the IC50 (pIC50) was 4.62.

Take `Cc1c(C(=O)OCc2ccccc2)sc2[nH]c(=O)n(Cc3ccc(Cl)c(Cl)c3)c(=O)c12` [Example 310, 3-(3,4-Dichloro-benzyl)-5-methyl-2,4-dioxo-1,2,3,4-tetrahydro-thieno[2,3-d]pyrimidine-6-carboxylic acid benzyl ester]: the negative logarithm of the IC50 (pIC50) was 4.52.

Consider `Cn1c(=O)n(Cc2ccccc2)c(=O)c2cc(C(=O)OCc3c(F)cccc3Cl)sc21` [Example 190, 3-Benzyl-1-methyl-2,4-dioxo-1,2,3,4-tetrahydro-thieno[2,3-d]pyrimidine-6-carboxylic acid 2-chloro-6-fluoro-benzyl ester], for which the pIC50 was less than 4.00.

As to `Cn1c(=O)n(Cc2ccccc2)c(=O)c2cc(C(=O)OCCc3ccccn3)sc21` [Example 206, 3-Benzyl-1-methyl-2,4-dioxo-1,2,3,4-tetrahydro-thieno[2,3-d]pyrimidine-6-carboxylic acid 2-pyridin-2-yl-ethyl ester], the pIC50 was 4.82.

`Cn1c(=O)n(Cc2ccc(-c3ccccc3)cc2)c(=O)c2cc(C(=O)OCc3ccccc3)sc21` [Example 100, 3-Biphenyl-4-ylmethyl-1-methyl-2,4-dioxo-1,2,3,4-tetrahydro-thieno[2,3-d]pyrimidine-6-carboxylic acid benzyl ester]: the pIC50 was 6.21.
